Experimental data taken from patent publication US12195427B2, “MASP-2 inhibitors and methods of use” (priority 2018, dated 2025).
Structures can show the parent of a compound that is named as a salt.

Target: MASP-2 CCP2-SP (Homo sapiens (Human), UniProt O00187)
Assay: MASP-2 co-crystallization, X-ray crystallography and structure analysis (H-bonds, van der Waals contacts);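 on Ligand-pharmacophore element distance, pharmacophore element C2: distance from averaged pharmacophore element to bound ligand; missing value means element absent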;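 on Ligand-pharmacophore element distance, pharmacophore element C3: distance from averaged pharmacophore element to bound ligand; missing value means element absent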;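 on Ligand-pharmacophore element distance, pharmacophore element C4: distance from averaged pharmacophore element to bound ligand; missing value means element absent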;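 on Ligand-pharmacophore element distance, pharmacophore element C5: distance from averaged pharmacophore element to bound ligand; missing value means element absent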
Parameters: van der Waals contact distance, MASP-2 HIS 483 atom CD2 / van der Waals contact distance, MASP-2 HIS 483 atom NE2 / van der Waals contact distance, SER 654 C to compound atom / van der Waals contact distance, SER 654 O to compound atom / van der Waals contact distance, TRP 655 C to compound atom / van der Waals contact distance, MASP-2 GLY 528 atom CA / van der Waals contact distance TRP 655 atom CZ3 / van der Waals contact distance TRP 655 atom N / van der Waals contact distance TRP 655 atom CE3 / van der Waals contact distance GLY 656 atom C / van der Waals contact distance GLY 656 atom CA / van der Waals contact distance GLY 656 atom O / van der Waals contact distance, MASP-2 TYR 607 atom CD1 / van der Waals contact distance, MASP-2 PRO 606 atom O / d(C3,CA1) / d(CA1,N1)2 / d(H4,O1) / d(H4,O2) / d(O1,O2) / d(CA1,O2) / d(CA6,O1) / d(CA6,O2) / d(CA1,C5) / d(O2,H3) / d(N2,C2) / d(CA5,N2) / d(N2,C4) / d(N2,C6) / d(N2,CA3) / d(N2,O3) / d(O4,H2): unit not given beside the values
Conditions: for H-bond distance to MASP-2 GLY 656 atom O: GLY 656 O; for H-bond distance to MASP-2 SER 628 atom O: SER 628 O; for H-bond distance to MASP-2 SER 654 atom O: SER 654 O; for H-bond distance to MASP-2 SER 657 atom O: SER 657 O; for van der Waals contact distance, MASP-2 HIS 483 atom CD2 / van der Waals contact distance, MASP-2 HIS 483 atom NE2: Table A2-1; for van der Waals contact distance, MASP-2 PHE 529 atom CD1 / van der Waals contact distance, MASP-2 PHE 529 atom CZ: Table A2-3; for van der Waals contact distance, VAL 653 CG1 to compound atom / van der Waals contact distance, SER 654 C to compound atom: Table A2-11; for van der Waals contact distance TRP 655 atom CE3: MASP-2 TRP 655 CE3, compound atom in line below; for van der Waals contact distance TRP 655 atom CZ3: MASP-2 TRP 655 CZ3; for H-bond distance to MASP-2 ASP 627 atom OD2: ASP 627 OD2; for H-bond distance to MASP-2 GLY 656 atom N: GLY 656 N; for van der Waals contact distance GLY 656 atom C: MASP-2 GLY 656 C
Method in brief: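 E. coli-expressed CCP2-SP (±6His); apo crystals soaked 1–2× in inhibitor-containing crystallization solution; optional 20% glycerol cryoprotection, LN2 flash-cool; synchrotron data at 1.0 wavelength; MR using 1Q3X portions, partial refinement; single pose analysed when several seen.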

[1] = Table A2-9, ARG 630, AA atoms CG, CZ
[2] = Table A5-1 pharmacophore: distance between elements, S2/S1 region
[3] = Table A5-2 pharmacophore distance, S3/S4 region
[4] = Table A7-1, between pharmacophore elements of the bound compound
[5] = Table A7-2, between pharmacophore elements of the bound compound

MASP-2 CCP2-SP, sequence (O00187 445-686): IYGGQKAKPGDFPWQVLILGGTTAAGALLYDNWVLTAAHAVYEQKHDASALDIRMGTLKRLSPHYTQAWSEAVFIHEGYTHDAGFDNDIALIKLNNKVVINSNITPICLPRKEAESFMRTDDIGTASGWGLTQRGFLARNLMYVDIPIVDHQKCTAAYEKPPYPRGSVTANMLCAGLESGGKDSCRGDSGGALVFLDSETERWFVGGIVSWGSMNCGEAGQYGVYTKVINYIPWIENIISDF
MASP-2 CCP2-SP, sequence (O00187 364-432 partner): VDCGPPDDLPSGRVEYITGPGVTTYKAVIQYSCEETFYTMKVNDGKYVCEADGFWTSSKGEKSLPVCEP

Cc1cccc([C@H]2CN[C@@H](C(=O)N[C@@H](C)C(=O)NCc3ccc(N)nc3C)C2)c1 [compound 1257, (2R,4S)—N—((S)-1-(((6-Amino-2-methylpyridin-3-yl)methyl)amino)-1-oxopropan-2-yl)-4-(m-tolyl)pyrrolidine-2-carboxamide Dihydrochloride]
H-bond distance to MASP-2 GLY 656 atom O (Table A1 (H-Bonds)): 2.82
H-bond distance to MASP-2 SER 628 atom O (Table A1 (H-Bonds)): 3.12
H-bond distance to MASP-2 SER 654 atom O (Table A1 (H-Bonds)): 3.02
H-bond distance to MASP-2 SER 657 atom O (Table A1 (H-Bonds)): 2.86
van der Waals contact distance, MASP-2 HIS 483 atom CD2: 3.7
van der Waals contact distance, MASP-2 HIS 483 atom NE2: 3.72
van der Waals contact distance, MASP-2 PHE 529 atom CD1: 3.89
van der Waals contact distance, MASP-2 PRO 606 atom O (Table A2-4): 3.38
van der Waals contact distance, MASP-2 amino acid atom to compound atom (Table A2-5: TYR 607 (CE1, CE2, OH), PRO 608 (CD, CG), SER 611 (CA)): 3.8
van der Waals contact distance, MASP-2 amino acid atom to compound atom [1]: 3.53
van der Waals contact distance, VAL 653 CG1 to compound atom: 3.36
van der Waals contact distance, SER 654 O to compound atom (Table A2-12): 3.73
van der Waals contact distance, TRP 655 CA to compound atom (Table A2-12): 3.57
van der Waals contact distance TRP 655 atom CE3 (Table A2-13): 3.87
van der Waals contact distance TRP 655 atom CZ3 (Table A2-13): 3.77
van der Waals contact distance, MASP-2 amino acid atom to compound atom (Table A2 section before Table A2-8): 3.86
Ligand-pharmacophore element distance, pharmacophore element C2 (Table A4-1, element C2): 0
Ligand-pharmacophore element distance, pharmacophore element C3 (Table A4-1, element C3): 0.1
Ligand-pharmacophore element distance, pharmacophore element C4 (Table A4-1, element C4): 0
Ligand-pharmacophore element distance, pharmacophore element C5 (Table A4-1, element C5): 0
Ligand-pharmacophore element distance, pharmacophore element C6 (Table A4-1, element C6): 0.53
Ligand-pharmacophore element distance, pharmacophore element C7 (Table A4-1, element C7): 0
Ligand-pharmacophore element distance, pharmacophore element CA1 (Table A4-1, element CA1): 0.65
Ligand-pharmacophore element distance, pharmacophore element CA2 (Table A4-1, element CA2): 0
Ligand-pharmacophore element distance, pharmacophore element CA3 (Table A4-1, element CA3): 0
Ligand-pharmacophore element distance, pharmacophore element CA4 (Table A4-1, element CA4): 0
Ligand-pharmacophore element distance, pharmacophore element CA5 (Table A4-1, element CA5): 1.2
Ligand-pharmacophore element distance, pharmacophore element CA6 (Table A4-1, element CA6): 0
d(C3,CA1) [2]: 2.87
d(CA1,N1)2 [2]: 1.35
d(CA1,O1) [2]: 4.45
d(CA1,O2) [2]: 4.03
d(H4,O1) [2]: 4.43
d(H4,O2) [2]: 3.84
d(O1,O2) [2]: 3.61
d(CA5,N2) [3]: 5.09
d(N2,C6) [3]: 6.64
d(O2,H3) [3]: 2.18
d(O2,N2) [3]: 2.71
a(C3, CA1, O1) (Table A6-1 pharmacophore angle): 150.46
a(CA1, O1, O2) (Table A6-1 pharmacophore angle): 109.00
a(O1, O2, H4) (Table A6-1 pharmacophore angle): 128.83
a(N1, CA1, O1) b) (Table A6-1 pharmacophore angle, Methyl-amino-pyridine compounds): 174.64
a(O1, O2, H3) (Table A6-2 pharmacophore angle): 132.63
a(O1, O2, N2) (Table A6-2 pharmacophore angle): 141.45
a(O2, N2, C6) (Table A6-2 pharmacophore angle): 105.30
Pharmacophore torsion angle a(C3, CA1, O1, H4) [4]: 30.77
Pharmacophore torsion angle a(H4, O1, O2, H3) [4]: 108.60
Pharmacophore torsion angle a(H4, O1, O2, N2) [4]: 132.94
Pharmacophore torsion angle a(N1, CA1, O1, H4) [4]: 11.94
Pharmacophore torsion angle a(O1, H4, O2, CA1) [4]: −83.51
Pharmacophore torsion angle a(O1, O2, N2, C6) [5]: 146.13
Pharmacophore torsion angle a(O1, O2, N2, CA5) [5]: 134.25

Cc1nc(N)ccc1CNC(=O)[C@H](C)NC(=O)[C@H]1C[C@@H](c2cccc3ccccc23)CCN1 [compound 1297, (2R,4S)—N—((S)-1-(((6-Amino-2-methylpyridin-3-yl)methyl)amino)-1-oxopropan-2-yl)-4-(naphthalen-1-yl)piperidine-2-carboxamide]
H-bond distance to MASP-2 ASP 627 atom OD2 (Table A1 (H-Bonds)): 3.13
H-bond distance to MASP-2 GLY 656 atom N (Table A1 (H-Bonds)): 3.33
H-bond distance to MASP-2 GLY 656 atom O (Table A1 (H-Bonds)): 2.67
H-bond distance to MASP-2 SER 628 atom O (Table A1 (H-Bonds)): 2.96
H-bond distance to MASP-2 SER 654 atom O (Table A1 (H-Bonds)): 2.88
H-bond distance to MASP-2 SER 657 atom O (Table A1 (H-Bonds)): 3.06
van der Waals contact distance, MASP-2 HIS 483 atom CD2: 3.74
van der Waals contact distance, MASP-2 HIS 483 atom NE2: 3.84
van der Waals contact distance, MASP-2 GLY 528 atom CA (Table A2-2): 3.76
van der Waals contact distance, MASP-2 TYR 607 atom CD1 (Table A2-4): 3.81
van der Waals contact distance, MASP-2 amino acid atom to compound atom [1]: 3.47
van der Waals contact distance, VAL 653 CG1 to compound atom: 3.22
van der Waals contact distance, SER 654 O to compound atom (Table A2-12): 3.51
van der Waals contact distance, TRP 655 C to compound atom (Table A2-12): 3.89
van der Waals contact distance, TRP 655 CA to compound atom (Table A2-12): 3.49
van der Waals contact distance TRP 655 atom CE3 (Table A2-13): 3.54

C[C@H](NC(=O)[C@H]1C[C@H](Cc2ccccc2)CN1)C(=O)NCc1ccc(C(=N)N)cc1 [compound 1306, (2R,4S)-4-Benzyl-N—((S)-1-((4-carbamimidoylbenzyl)amino)-1-oxopropan-2-yl)pyrrolidine-2-carboxamide]
H-bond distance to MASP-2 ASP 627 atom OD2 (Table A1 (H-Bonds)): 2.6
H-bond distance to MASP-2 GLY 656 atom N (Table A1 (H-Bonds)): 3.05
H-bond distance to MASP-2 GLY 656 atom O (Table A1 (H-Bonds)): 2.69
H-bond distance to MASP-2 SER 628 atom O (Table A1 (H-Bonds)): 2.24
H-bond distance to MASP-2 SER 657 atom O (Table A1 (H-Bonds)): 2.87
van der Waals contact distance, MASP-2 HIS 483 atom CD2: 3.47
van der Waals contact distance, MASP-2 HIS 483 atom NE2: 3.32
van der Waals contact distance, MASP-2 PHE 529 atom CZ: 3.63
van der Waals contact distance, MASP-2 TYR 607 atom CD1 (Table A2-4): 3.85
van der Waals contact distance, MASP-2 amino acid atom to compound atom (Table A2-9 second part, ARG 630, AA atoms N, NE, NH1): 3.76
van der Waals contact distance GLY 656 atom C (Table A2-13): 3.54
van der Waals contact distance GLY 656 atom CA (Table A2-13, MASP-2 GLY 656 CA): 3.61

Cc1nc(N)ccc1CNC(=O)[C@H](C)NC(=O)[C@H]1C[C@H](Cc2cccc(Cl)c2)CN1 [compound 1328, (2R,4S)—N—((S)-1-(((6-amino-2-methylpyridin-3-yl)methyl)amino)-1-oxopropan-2-yl)-4-(3-chlorobenzyl)pyrrolidine-2-carboxamide]
H-bond distance to MASP-2 GLY 656 atom N (Table A1 (H-Bonds)): 3.33
H-bond distance to MASP-2 GLY 656 atom O (Table A1 (H-Bonds)): 2.82
H-bond distance to MASP-2 SER 628 atom O (Table A1 (H-Bonds)): 3.06
H-bond distance to MASP-2 SER 654 atom O (Table A1 (H-Bonds)): 2.67
H-bond distance to MASP-2 SER 657 atom O (Table A1 (H-Bonds)): 2.44
van der Waals contact distance, MASP-2 HIS 483 atom CD2: 3.79
van der Waals contact distance, MASP-2 HIS 483 atom NE2: 3.73
van der Waals contact distance, MASP-2 PHE 529 atom CD1: 3.78
van der Waals contact distance, SER 654 C to compound atom: 3.62
van der Waals contact distance, VAL 653 CG1 to compound atom: 3.23
van der Waals contact distance TRP 655 atom CE3 (Table A2-13): 3.49
van der Waals contact distance TRP 655 atom CZ3 (Table A2-13): 3.53

CC(=O)Nc1ccc(CCN[C@H](CCc2ccccc2)C(=O)N[C@@H](C)C(=O)NCc2ccc(C(=N)N)cc2)cc1 [compound 1345, (R)-2-((4-acetamidophenethyl)amino)-N—((S)-1-((4-carbamimidoylbenzyl)amino)-1-oxopropan-2-yl)-4-phenylbutanamide]
H-bond distance to MASP-2 ARG 630 atom NH1 (second bond) (Table A1 (H-Bonds), ARG 630 NH1): 2.37
H-bond distance to MASP-2 GLN 665 atom OE1 (Table A1 (H-Bonds), GLN 665 OE1): 2.63
H-bond distance to MASP-2 GLY 656 atom N (Table A1 (H-Bonds)): 3.05
H-bond distance to MASP-2 GLY 656 atom O (Table A1 (H-Bonds)): 3.13
H-bond distance to MASP-2 SER 628 atom O (Table A1 (H-Bonds)): 2.64
H-bond distance to MASP-2 SER 654 atom O (Table A1 (H-Bonds)): 3.02
H-bond distance to MASP-2 SER 657 atom O (Table A1 (H-Bonds)): 3.01
van der Waals contact distance, MASP-2 HIS 483 atom CD2: 3.69
van der Waals contact distance, MASP-2 HIS 483 atom NE2: 3.37
van der Waals contact distance, MASP-2 PHE 529 atom CZ: 3.88
van der Waals contact distance, MASP-2 amino acid atom to compound atom [1]: 3.52
van der Waals contact distance, SER 654 C to compound atom: 3.84
van der Waals contact distance, SER 654 O to compound atom (Table A2-12): 3.75
van der Waals contact distance GLY 656 atom C (Table A2-13): 3.74
